For orientation: IC50 means the point on the concentration scale where inhibition reaches its midpoint. A low value points to higher potency.

“And” between values parts separate entries of the source, which are not always exact repeats. Equal values may be shown once.

Experimental findings from patent US9499519B2, “Fused pyrimidine compounds and use thereof” (Medivation Technologies, Inc., priority 2012, dated 2016) are described below.

Holding throughout (assay type): biochemical
One assay concerns the target Trk C (Homo sapiens, UniProt Q16288). In words: HotSpot kinase assay: Trk C. The procedure: (§1) Each compound was tested at a concentration of 0.1 μM in single duplicate mode against the 3 kinases. Compounds were prepared as 10 mM stock solutions in DMSO prior to use in the assay. […] IC50 values and curve fits were obtained using Prism (GraphPad Software).
(§2) The screening was performed using the “HotSpot” assay platform. The assay measures the conversion of a peptide substrate to ^33P-labelled phosphorylated product. Briefly, specific kinase/substrate pairs along with required cofactors were prepared in reaction buffer. Specifically, the substrate was prepared in reaction buffer (20 mM Hepes, pH 7.5; 10 mM MgCl2; 1 mM EGTA; 0.02% Brij35; 0.02 mg/mL BSA; 0.1 mM Na3VO4; 2 mM DTT; 1% DMSO), followed by delivery of any required cofactor to the resulting substrate solution. The corresponding kinase was delivered into the substrate solution and the reaction mixture was mixed gently. Compound was delivered into the reaction mixture, followed 15-20 minutes later by addition of a mixture of ATP (Sigma, St. Louis Mo.) and ^33P ATP (specific activity 0.01 μCi/μL final; Perkin Elmer, Waltham, Mass.) to a final concentration of 10 μM-30 μM to initiate the reaction. […] The percent of enzyme inhibition was calculated based on the percent of remaining kinase activity.
(§3) Kinase assays were performed using additional compounds against a panel of 4 kinases: AXL; c-Met; c-Mer; and Trk C. Each compound was tested at a concentration of […] in single duplicate mode against the 4 kinases. Compounds were prepared as 10 mM stock solutions in DMSO prior to use in the assay. […] IC50 values and curve fits were obtained using Prism (GraphPad Software).

The target in the next assay is T1, IGF-1R (Homo sapiens, UniProt P08069).
T1 construct: purchased Millipore 14-802
T1 sequence (P08069 31-1367): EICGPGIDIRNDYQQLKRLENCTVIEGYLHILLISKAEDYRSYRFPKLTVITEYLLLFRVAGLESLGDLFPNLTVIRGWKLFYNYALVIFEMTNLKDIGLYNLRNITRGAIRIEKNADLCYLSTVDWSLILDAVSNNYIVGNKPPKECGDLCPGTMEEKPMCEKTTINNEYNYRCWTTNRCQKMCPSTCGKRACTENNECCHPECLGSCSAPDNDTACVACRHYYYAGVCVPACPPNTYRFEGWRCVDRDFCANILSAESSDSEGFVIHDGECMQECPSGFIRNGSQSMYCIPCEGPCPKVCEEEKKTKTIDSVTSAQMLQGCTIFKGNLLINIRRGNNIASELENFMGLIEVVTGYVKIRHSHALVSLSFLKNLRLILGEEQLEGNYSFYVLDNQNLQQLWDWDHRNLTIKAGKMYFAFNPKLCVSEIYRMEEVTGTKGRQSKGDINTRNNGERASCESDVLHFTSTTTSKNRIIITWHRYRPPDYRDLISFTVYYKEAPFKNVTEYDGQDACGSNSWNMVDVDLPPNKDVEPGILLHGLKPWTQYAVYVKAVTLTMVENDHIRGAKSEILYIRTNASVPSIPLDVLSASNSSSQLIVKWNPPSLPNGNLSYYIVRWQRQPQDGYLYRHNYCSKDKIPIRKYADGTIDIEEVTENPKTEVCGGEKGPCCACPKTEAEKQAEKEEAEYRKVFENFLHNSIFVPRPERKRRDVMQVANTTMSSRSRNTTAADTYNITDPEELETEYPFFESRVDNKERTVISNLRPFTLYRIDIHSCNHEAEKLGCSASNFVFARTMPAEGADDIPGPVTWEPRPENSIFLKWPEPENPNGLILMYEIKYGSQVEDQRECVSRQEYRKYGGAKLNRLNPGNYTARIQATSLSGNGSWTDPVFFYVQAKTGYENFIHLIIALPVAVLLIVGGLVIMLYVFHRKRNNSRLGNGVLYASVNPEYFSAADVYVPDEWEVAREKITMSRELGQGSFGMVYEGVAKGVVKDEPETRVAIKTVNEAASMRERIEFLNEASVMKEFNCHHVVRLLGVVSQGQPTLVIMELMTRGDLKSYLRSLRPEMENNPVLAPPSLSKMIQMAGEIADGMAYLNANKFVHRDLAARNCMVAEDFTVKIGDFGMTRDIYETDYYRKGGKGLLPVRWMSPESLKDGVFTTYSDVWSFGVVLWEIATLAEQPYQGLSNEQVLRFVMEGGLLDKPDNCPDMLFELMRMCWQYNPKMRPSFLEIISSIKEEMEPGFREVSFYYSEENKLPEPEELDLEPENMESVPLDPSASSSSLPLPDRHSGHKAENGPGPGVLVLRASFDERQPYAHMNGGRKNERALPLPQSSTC
Briefly: In vitro IGF-1R enzymatic assay (ADP-Glo kinase assay). The note with it: activated IGF-1R. How it is done: (§4) IC50 values of the compounds of the invention against IGF-1R and IR were measured in vitro using an ADP-Glo kinase assay Kit (Promega). […] Kinase reactions in both assays were conducted at 30° C. for 20 min with increasing concentrations of compounds of the invention.
Additional compounds of the invention were screened against activated IGF-1R.
In general terms: ADP-Glo turns the ADP formed in a reaction into a luminescent signal.

The target of another assay is Trk A (Homo sapiens, UniProt P04629). In words: HotSpot kinase assay: Trk A. The note with it: 100 nM compound, read-out: % Enzyme Inhibition @ 100 nM Trk A. The procedure: Kinase assays were performed using additional compounds against a panel of 3 kinases: Trk A; Trk B; and Trk C. Each compound was tested at a concentration of 0.1 μM in single duplicate mode against the 3 kinases. Compounds were prepared as 10 mM stock solutions in DMSO prior to use in the assay. […] IC50 values and curve fits were obtained using Prism (GraphPad Software). […]
Chain of Trk A (P04629 33-796): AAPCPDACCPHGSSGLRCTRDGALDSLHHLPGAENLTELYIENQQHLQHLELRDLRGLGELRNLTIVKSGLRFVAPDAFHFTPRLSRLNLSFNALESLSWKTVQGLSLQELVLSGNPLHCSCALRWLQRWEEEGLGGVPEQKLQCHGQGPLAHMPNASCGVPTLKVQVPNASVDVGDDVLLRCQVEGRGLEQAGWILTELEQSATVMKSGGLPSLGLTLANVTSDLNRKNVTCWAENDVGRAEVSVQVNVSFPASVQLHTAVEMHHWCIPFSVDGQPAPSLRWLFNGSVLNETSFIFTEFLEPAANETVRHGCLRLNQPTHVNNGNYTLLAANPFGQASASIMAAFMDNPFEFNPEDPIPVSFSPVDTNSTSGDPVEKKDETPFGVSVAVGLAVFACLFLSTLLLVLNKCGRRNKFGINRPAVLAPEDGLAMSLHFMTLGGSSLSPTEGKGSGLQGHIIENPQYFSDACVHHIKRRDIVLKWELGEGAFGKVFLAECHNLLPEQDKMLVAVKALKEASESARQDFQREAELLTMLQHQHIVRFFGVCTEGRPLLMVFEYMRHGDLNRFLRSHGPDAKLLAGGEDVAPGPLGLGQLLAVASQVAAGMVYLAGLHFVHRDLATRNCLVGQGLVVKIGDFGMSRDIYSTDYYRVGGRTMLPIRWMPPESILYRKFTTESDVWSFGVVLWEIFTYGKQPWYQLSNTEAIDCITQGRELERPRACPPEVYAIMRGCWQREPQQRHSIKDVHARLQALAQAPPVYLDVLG
The screening was performed using the “HotSpot” assay platform. The assay measures the conversion of a peptide substrate to ^33P-labelled phosphorylated product. Briefly, specific kinase/substrate pairs along with required cofactors were prepared in reaction buffer. Specifically, the substrate was prepared in reaction buffer (20 mM Hepes, pH 7.5; 10 mM MgCl2; 1 mM EGTA; 0.02% Brij35; 0.02 mg/mL BSA; 0.1 mM Na3VO4; 2 mM DTT; 1% DMSO), followed by delivery of any required cofactor to the resulting substrate solution. The corresponding kinase was delivered into the substrate solution and the reaction mixture was mixed gently. Compound was delivered into the reaction mixture, followed 15-20 minutes later by addition of a mixture of ATP (Sigma, St. Louis Mo.) and ^33P ATP (specific activity 0.01 μCi/μL final; Perkin Elmer, Waltham, Mass.) to a final concentration of 10 μM-30 μM to initiate the reaction. Reactions were carried out at room temperature for 120 minutes, followed by spotting of the reactions onto P81 ion exchange filter paper (Whatman #3698-915; Whatman Inc., Piscataway, N.J.). Unbound phosphate was removed by extensive washing of filters in 0.75% phosphoric acid. […] The percent of enzyme inhibition was calculated based on the percent of remaining kinase activity.

In another assay the target is T2, AXL (Homo sapiens, UniProt P30530).
T2 sequence (P30530 26-894): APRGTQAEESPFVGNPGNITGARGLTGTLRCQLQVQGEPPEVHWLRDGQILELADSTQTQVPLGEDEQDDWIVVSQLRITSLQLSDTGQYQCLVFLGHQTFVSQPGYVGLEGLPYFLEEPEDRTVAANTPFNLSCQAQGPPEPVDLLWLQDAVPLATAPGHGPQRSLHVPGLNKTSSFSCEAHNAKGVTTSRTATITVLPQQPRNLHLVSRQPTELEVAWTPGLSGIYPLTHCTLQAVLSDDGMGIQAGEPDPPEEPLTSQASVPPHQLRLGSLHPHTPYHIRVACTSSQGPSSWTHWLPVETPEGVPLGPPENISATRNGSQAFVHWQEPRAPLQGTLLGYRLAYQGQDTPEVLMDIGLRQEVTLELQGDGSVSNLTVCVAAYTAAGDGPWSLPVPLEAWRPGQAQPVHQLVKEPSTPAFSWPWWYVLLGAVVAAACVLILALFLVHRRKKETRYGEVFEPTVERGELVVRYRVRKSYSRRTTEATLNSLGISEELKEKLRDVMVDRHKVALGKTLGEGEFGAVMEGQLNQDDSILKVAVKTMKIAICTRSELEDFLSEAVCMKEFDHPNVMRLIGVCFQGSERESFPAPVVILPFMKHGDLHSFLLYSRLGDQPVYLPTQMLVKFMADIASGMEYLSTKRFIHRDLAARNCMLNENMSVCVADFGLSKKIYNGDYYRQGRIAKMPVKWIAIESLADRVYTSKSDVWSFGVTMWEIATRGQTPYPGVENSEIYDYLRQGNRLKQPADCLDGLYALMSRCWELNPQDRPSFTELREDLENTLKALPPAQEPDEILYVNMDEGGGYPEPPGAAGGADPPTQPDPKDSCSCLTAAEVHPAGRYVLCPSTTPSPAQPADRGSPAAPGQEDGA
In words: HotSpot kinase assay: AXL. The note with it: 100 nM compound, read-out: % Enzyme Inhibition @ 100 nM AXL. How it is done:
as §3, §2

In a further assay the target is Trk B (Homo sapiens, UniProt Q16620). In words: HotSpot kinase assay: Trk B. The note with it: 100 nM compound, read-out: % Enzyme Inhibition @ 100 nM Trk B. The procedure: as §1, §2
Chain of Trk B (Q16620 32-822): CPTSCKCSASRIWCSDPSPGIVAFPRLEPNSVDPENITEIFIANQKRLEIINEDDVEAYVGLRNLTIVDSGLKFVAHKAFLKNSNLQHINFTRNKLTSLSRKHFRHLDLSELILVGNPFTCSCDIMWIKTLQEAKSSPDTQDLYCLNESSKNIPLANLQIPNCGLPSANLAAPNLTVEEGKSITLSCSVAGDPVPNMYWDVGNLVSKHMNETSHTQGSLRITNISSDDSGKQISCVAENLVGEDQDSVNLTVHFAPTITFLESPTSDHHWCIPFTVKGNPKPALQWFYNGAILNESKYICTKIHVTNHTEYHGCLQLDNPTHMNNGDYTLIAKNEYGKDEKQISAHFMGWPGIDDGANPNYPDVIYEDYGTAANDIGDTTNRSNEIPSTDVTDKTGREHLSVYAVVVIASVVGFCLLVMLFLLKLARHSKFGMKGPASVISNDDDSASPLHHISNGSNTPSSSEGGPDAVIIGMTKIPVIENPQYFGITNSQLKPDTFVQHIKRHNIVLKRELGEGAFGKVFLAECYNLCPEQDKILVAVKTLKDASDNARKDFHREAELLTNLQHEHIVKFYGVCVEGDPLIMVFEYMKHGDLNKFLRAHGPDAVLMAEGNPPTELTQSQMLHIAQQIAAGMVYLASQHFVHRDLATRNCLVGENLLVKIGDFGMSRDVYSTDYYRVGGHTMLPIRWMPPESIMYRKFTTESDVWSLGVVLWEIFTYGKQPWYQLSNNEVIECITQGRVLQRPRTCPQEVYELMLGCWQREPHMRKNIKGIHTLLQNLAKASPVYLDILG
For the next assay, the target named is c-Met (Homo sapiens, UniProt P08581). In words: HotSpot kinase assay: c-Met. The note with it: 100 nM compound, read-out: % Enzyme Inhibition @ 100 nM c-MET. How it is done:
as §3, §2

For a further assay, the target named is T3, IR (Homo sapiens, UniProt P06213).
T3 construct: purchased Millipore 14-803
T3 sequence (P06213 28-1382): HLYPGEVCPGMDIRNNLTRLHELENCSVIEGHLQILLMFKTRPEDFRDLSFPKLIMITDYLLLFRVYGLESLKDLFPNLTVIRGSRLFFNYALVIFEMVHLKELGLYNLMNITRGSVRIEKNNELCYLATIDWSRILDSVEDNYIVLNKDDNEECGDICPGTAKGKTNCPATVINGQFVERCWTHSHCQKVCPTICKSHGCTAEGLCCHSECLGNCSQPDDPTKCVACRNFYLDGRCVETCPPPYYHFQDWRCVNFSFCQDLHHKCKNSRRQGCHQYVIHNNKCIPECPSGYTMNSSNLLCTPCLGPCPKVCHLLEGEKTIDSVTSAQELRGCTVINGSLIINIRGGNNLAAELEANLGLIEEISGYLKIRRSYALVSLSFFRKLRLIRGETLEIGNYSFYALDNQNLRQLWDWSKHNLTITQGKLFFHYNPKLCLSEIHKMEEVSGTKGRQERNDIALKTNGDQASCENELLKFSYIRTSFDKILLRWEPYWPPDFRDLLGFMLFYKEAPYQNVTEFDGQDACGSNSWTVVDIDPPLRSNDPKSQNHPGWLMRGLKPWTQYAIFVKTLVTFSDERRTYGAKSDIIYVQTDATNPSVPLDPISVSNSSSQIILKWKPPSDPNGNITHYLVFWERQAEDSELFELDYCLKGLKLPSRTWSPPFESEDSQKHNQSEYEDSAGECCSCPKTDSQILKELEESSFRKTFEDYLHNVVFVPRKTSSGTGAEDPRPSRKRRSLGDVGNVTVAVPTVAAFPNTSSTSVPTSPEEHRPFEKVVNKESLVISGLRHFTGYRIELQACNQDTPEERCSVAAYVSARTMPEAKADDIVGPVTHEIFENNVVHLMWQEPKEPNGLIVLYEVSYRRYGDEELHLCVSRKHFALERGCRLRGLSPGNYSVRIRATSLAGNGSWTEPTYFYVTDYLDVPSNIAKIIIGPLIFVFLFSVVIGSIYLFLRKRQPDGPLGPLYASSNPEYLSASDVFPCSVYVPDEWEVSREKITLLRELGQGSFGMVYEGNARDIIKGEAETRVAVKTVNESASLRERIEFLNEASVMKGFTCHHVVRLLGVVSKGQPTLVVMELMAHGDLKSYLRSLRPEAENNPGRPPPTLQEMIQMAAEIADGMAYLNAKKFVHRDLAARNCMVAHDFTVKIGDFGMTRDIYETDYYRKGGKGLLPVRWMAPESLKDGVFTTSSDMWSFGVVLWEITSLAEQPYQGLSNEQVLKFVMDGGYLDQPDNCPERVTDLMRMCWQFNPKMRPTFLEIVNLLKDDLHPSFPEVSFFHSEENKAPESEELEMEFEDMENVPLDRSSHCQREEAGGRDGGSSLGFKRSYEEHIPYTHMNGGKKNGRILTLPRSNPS
In words: In vitro IR enzymatic assay (ADP-Glo kinase assay). The note with it: activated IR. The procedure:
as §4
Additional compounds of the invention were screened against activated IR.

Chain of Trk C (Q16288 32-839): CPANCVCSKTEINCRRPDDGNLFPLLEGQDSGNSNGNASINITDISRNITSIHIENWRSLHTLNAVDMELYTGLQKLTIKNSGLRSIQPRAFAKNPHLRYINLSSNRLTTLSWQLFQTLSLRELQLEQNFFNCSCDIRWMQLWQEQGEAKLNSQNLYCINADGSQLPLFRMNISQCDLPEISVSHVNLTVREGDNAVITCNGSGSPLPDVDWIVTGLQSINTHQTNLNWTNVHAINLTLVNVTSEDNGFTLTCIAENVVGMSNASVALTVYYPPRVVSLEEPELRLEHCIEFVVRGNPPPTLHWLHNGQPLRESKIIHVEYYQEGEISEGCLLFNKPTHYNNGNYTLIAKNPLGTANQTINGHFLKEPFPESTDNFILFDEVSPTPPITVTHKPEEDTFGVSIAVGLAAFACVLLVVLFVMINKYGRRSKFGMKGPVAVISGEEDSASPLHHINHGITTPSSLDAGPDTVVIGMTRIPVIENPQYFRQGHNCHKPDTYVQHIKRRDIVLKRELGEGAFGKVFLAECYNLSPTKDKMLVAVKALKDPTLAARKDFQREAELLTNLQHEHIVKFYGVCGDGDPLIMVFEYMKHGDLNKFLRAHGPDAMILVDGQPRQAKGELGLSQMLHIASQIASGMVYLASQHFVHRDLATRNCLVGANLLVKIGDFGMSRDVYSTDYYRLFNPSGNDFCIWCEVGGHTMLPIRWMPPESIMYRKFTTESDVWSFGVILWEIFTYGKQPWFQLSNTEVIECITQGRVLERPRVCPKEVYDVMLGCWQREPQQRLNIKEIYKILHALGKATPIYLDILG

For `CC(C)c1cc(Nc2nc(N3CCCC3C(=O)N(C)C)nc3c2CCC3)n[nH]1` (single isomer, unassigned) [Compound 20b, 1-(4-(5-isopropyl-1H-pyrazol-3-ylamino)-6,7-dihydro-5H-cyclopenta[d]pyrimidin-2-yl)-N,N-dimethylpyrrolidine-2-carboxamide], the inhibition at 0.1 µM at Trk C (100 nM compound, HotSpot, read-out: % Enzyme Inhibition @ 100 nM Trk C) is above 60%; on Trk A, below 39%; at AXL, below 39%; on Trk B, below 39%; on c-Met, below 39%. Also, the IC50 at Trk C (Trk C) is 55.1 nM; against IGF-1R it was 3200 nM; against IR it was 1800 nM and 1700 nM. The “selectivity for Trk C inhibition over IGF-1R” value on Trk C (Trk C over IGF-1R) is “about 60 fold”. Further, the “selectivity for Trk C inhibition over IR” value at Trk C (Trk C over IR) is given as “about 30 fold”. Besides, on IGF-1R (30 nM, average, read-out: % Inh @ 30 nM Avg), the inhibition at 0.03 µM is 9%.
